Laboratory results published in patent US9732094B2, “Arylquinazolines” (Merck Patent GmbH, priority 2013, dated 2017).
Where two headings read alike, the source gives them in different places.

Legend:
[1] = target: DNA-PK (Homo sapiens (Human), UniProt P78527); test: DNA-PK assay (biochemical), flashplate 33P-ATP kinase assay
Description: A) DNA-PK Assay (Biochemical)
The kinase assay was carried out in streptavidin-coated […] microtitre flashplates. […] The reaction was stopped using 50 μl/well of 200 mM EDTA. After incubation for a further 30 min at room temperature, the liquid was removed. Each well was washed three times with 100 μl of 0.9% saline solution. A nonspecific reaction (blank value) was determined using 10 μM of an innate kinase inhibitor. The radioactivity measurement was carried out using a TopCount. IC50 values were calculated in RS1.

[2] = target: DNA-PK phosphorylation at serine 2056 (Homo sapiens (Human), UniProt P78527); test: DNA-PK phosphorylation at serine 2056 (cellular), bleomycin-treated HCT116 cells, ELISA; format: cell-based; settings: read-out: IC50 pDNA-PK
Description: HCT116 cells were cultivated at 37° C. and 10% CO2 in MEM alpha medium with 10% of foetal calf serum and 2 mM glutamine. The cells were detached from the base of the culture vessels with the aid of trypsin/EDTA, centrifuged off in centrifuge tubes, taken up in fresh medium, and the cell density was determined. 100,000 cells were sown in 1 ml of culture medium per cavity of a 24-well cell culture plate and cultivated overnight. Next day, 10 μM bleomycin (DNA intercalator and inductor of DNA double-strand breaks) and test substances in fresh culture medium were added to the cells, and these were cultivated for a further six hours. […] The 96-well ELISA plates were subsequently treated with a detection antibody (Abcam ab79444: total DNA-PK) and a streptavidin-HRP conjugate. The development of the enzymatic reaction was carried out with the aid of a chemiluminescent reagent, the chemiluminescence was measured with the aid of a Mithras LB940. The signals with the phospho-DNA-PK-specific antibody were standardised to the signal with the antibody against the total protein DNA-PKc. […] The DMSO control was used as blank.

[3] = target: Kv11.1 (hERG) (Homo sapiens (Human), UniProt Q12809); test: Kv11.1 (hERG) ion channel activity (patch clamp assay), HEK293 cells transfected with hERG gene; settings: patch clamp, HEK293 transfected with hERG gene
[4] = cellular, HCT116 cells, 10 μM bleomycin, six hours
[5] = cellular DNA-PK phosphorylation at serine 2056, HCT116

Kv11.1 (hERG), sequence (Q12809 whole entry): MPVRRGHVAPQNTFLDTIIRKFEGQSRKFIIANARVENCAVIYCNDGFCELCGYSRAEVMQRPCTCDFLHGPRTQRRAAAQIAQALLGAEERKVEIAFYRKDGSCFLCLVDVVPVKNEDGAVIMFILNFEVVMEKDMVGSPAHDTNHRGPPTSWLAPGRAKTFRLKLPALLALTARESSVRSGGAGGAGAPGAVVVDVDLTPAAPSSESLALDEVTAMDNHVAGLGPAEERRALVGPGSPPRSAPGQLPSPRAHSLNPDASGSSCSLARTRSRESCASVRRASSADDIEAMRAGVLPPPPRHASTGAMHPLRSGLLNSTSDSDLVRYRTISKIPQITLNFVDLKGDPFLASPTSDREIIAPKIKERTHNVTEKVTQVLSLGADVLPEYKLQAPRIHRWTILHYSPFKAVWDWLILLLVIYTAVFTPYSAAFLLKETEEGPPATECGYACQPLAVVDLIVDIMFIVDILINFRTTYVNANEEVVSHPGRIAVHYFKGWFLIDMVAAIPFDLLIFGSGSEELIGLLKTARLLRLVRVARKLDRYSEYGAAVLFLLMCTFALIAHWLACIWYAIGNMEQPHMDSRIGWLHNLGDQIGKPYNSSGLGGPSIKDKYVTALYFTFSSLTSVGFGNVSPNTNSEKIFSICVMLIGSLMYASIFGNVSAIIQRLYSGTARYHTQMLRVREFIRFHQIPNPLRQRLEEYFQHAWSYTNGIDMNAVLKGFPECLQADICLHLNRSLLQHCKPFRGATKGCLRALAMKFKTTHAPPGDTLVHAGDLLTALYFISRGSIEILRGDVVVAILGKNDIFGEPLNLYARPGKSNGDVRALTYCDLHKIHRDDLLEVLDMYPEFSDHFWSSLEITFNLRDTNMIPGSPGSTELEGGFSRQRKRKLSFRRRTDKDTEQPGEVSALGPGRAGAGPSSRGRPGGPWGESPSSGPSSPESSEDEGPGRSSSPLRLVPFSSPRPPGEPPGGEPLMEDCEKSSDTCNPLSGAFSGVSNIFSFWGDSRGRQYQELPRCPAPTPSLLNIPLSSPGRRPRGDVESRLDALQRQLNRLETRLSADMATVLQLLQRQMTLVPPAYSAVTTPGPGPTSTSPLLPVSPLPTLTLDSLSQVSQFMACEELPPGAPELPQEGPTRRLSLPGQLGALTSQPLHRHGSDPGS

OC(c1cccnn1)c1cc(-c2ncnc3cc(N4CCOCC4)ccc23)c(F)cc1Cl (single isomer, unassigned) [Example 30, [2-Chloro-4-fluoro-5-(7-morpholin-4-yl-quinazolin-4-yl)phenyl]-pyridazin-3-ylmethanol] was tested, and the IC50 ([1]; enzymatic, 5 μM ATP) was under 0.003 µM and the IC50 [2, 4] was under 0.5 µM.

COc1ccc(C(O)c2cc(-c3ncnc4cc(N5CCOCC5)sc34)c(F)cc2Cl)nn1 (single isomer, unassigned) [Example 127, [2-Chloro-4-fluoro-5-(6-morpholin-4-ylthieno[3,2-d}-pyrimidin-4-yl)-phenyl]-(6-methoxy-pyridazin-3-yl)-methanol] showed an IC50 ([1]; enzymatic, 5 μM ATP) of 0.003 to 0.007 µM and an IC50 [2, 4] of 5 to 10 µM.

In the case of COc1ccc(C(O)c2cc(-c3ncnc4cc(N5CCOCC5)ccc34)c(F)cc2F)nn1 (single isomer, unassigned) [Example 129, [2,4-Difluoro-5-(7-morpholin-4-yl-quinazolin-4-yl)-phenyl]-(6-methoxy-pyridazin-3-yl)-methanol], the Ki ([3]; Ki [Kv1.11 hERG]) is reported as 15 to 25 µM.

COc1ccc(C(O)c2cc(-c3ncnc4cc(N5CCOCC5)ccc34)c(F)cc2F)nn1 (single isomer, unassigned) [Example 130, [2,4-Difluoro-5-(7-morpholin-4-yl-quinazolin-4-yl)-phenyl]-(6-methoxy-pyridazin-3-yl)-methanol] was tested, and the Ki ([3]; read-out: Ki [Kv1.11 hERG]) was over 25 µM.

Compound COc1nccnc1C(O)c1ccc(F)c(-c2ncnc3cc(N4CCOCC4)cc(F)c23)c1 (single isomer, unassigned) [Example 253, [4-Fluoro-3-(5-fluoro-7-morpholin-4-yl-quinazolin-4-yl)-phenyl]-(3-methoxy-pyrazin-2-yl)-methanol] has an IC50 ([1]; biochemical DNA-PK assay) of 0.007 to 0.03 µM and an IC50 [2, 5] of 5 to 10 µM.

Cc1nccnc1C(O)c1cc(-c2ncnc3cc(N4CCOCC4)ccc23)c(F)cc1F (stereo not drawn) [Example 85] was tested, and the IC50 ([1]; enzymatic, 5 μM ATP) was under 0.003 µM and the IC50 [2, 4] was 0.5 to 5 µM.

For OC(c1ccc(F)c(-c2ncnc3cc(N4CCOCC4)sc23)c1)c1nccs1 (stereo not drawn) [Example 146, [4-fluoro-3-(6-morpholin-4-ylthieno[3,2-d]pyrimidin-4-yl)phenyl]thiazol-2-ylmethanol], the IC50 ([2]; Table 5, HCT116 cells) was 0.5 to 5 µM.

For CC(O)(c1cncc(-c2ncnc3cc(N4CCOCC4)ccc23)c1)c1nccs1 (stereo not drawn) [Example 151, 1-[5-(7-Morpholin-4-ylquinazolin-4-yl)-pyridin-3-yl]-1-thiazol-2-ylethanol], the IC50 ([1]; Table 5) was over 0.03 µM.

For CC(O)(c1cc(-c2ncnc3cc(N4CCOCC4)ccc23)ccn1)c1nccs1 (stereo not drawn) [Example 153, 1-[4-(7-Morpholin-4-ylquinazolin-4-yl)-pyridin-2-yl]-1-thiazol-2-ylethanol], the IC50 ([1]; Table 5) was over 0.03 µM.

Compound Cc1ccc(C(C)(O)c2nccs2)cc1-c1ncnc2cc(N3CCOCC3)ccc12 (stereo not drawn) [Example 155, 1-[4-methyl-3-(7-morpholin-4-yl-quinazolin-4-yl)-phenyl)-1-thiazol-2-ylethanol] has an IC50 ([1]; Table 5) of over 0.03 µM.

CC(O)(c1cc(-c2ncnc3cc(N4CCOCC4)ccc23)cs1)c1nccs1 (stereo not drawn) [Example 156, 1-[4-(7-Morpholin-4-ylquinazolin-4-yl)-thiophen-2-yl]-1-thiazol-2-ylethanol] was tested, and the IC50 ([1]; Table 5) was over 0.03 µM.

OC(c1ccc(-c2ncnc3cc(N4CCOCC4)ccc23)s1)c1nccs1 (stereo not drawn) [Example 160, [5-(7-Morpholin-4-ylquinazolin-4-yl)-thiophen-2-yl]-thiazol-2-yl-methanol] gave an IC50 ([1]; Table 5) of over 0.03 µM.

CC(O)(c1nccs1)c1cccc(-c2ncnc3cc(N4CCOCC4)ccc23)c1F (stereo not drawn) [Example 162, 1-[2-Fluoro-3-(7-morpholin-4-yl-quinazolin-4-yl)-phenyl]-1-thiazol-2-ylethanol] was tested, and the IC50 ([1]; Table 5) was over 0.03 µM.

For OC(c1csc(-c2ncnc3cc(N4CCOCC4)ccc23)c1)c1nccs1 (stereo not drawn) [Example 164, [5-(7-Morpholin-4-ylquinazolin-4-yl)-thiophen-3-yl]-thiazol-2-yl-methanol], the IC50 ([1]; Table 5) was over 0.03 µM.

OC(c1cc(F)cc(-c2ncnc3cc(N4CCOCC4)ccc23)c1)c1nccs1 (stereo not drawn) [Example 169, [3-Fluoro-5-(7-morpholin-4-yl-quinazolin-4-yl)-phenyl]thiazol-2-yl-methanol] was tested, and the IC50 ([1]; Table 5) was 0.007 to 0.03 µM and the IC50 ([2]; Table 5, HCT116 cells) was 10 to 30 µM.

OC(c1nccs1)c1cc(-c2ncnc3cc(N4CCOCC4)ccc23)ccc1F (stereo not drawn) [Example 170, [2-Fluoro-5-(7-morpholin-4-yl-quinazolin-4-yl)-phenyl]thiazol-2-yl-methanol] was tested, and the IC50 ([1]; Table 5) was 0.007 to 0.03 µM and the IC50 ([2]; Table 5, HCT116 cells) was 5 to 10 µM.

Compound OC(c1cccc(-c2ncnc3cc(N4CCOCC4)ccc23)c1)(c1nccs1)C(F)(F)F (stereo not drawn) [Example 172, 2,2,2-Trifluoro-1-[3-(7-morpholin-4-yl-quinazolin-4-yl)-phenyl]-1-thiazol-2-ylethanol] has an IC50 ([1]; Table 5) of 0.007 to 0.03 µM and an IC50 ([2]; Table 5, HCT116 cells) of 10 to 30 µM.

Compound c1nc(N2CCCCC2)c2scc(N3CCOCC3)c2n1 [Example 174, 7-Morpholin-4-yl-4-piperidin-1-yl-thieno[3,2-d}-pyrimidine] has an IC50 ([1]; Table 5) of 0.007 to 0.03 µM and an IC50 ([2]; Table 5, HCT116 cells) of 10 to 30 µM.

COC(c1ccc(F)c(-c2ncnc3cc(N4CCOCC4)ccc23)c1)c1nccs1 (stereo not drawn) [Example 175, 4-[2-Fluoro-5-(methoxy-thiazol-2-ylmethyl)phenyl]-7-morpholin-4-yl-quinazoline] gave an IC50 ([1]; Table 5) of over 0.03 µM.

Compound COC(c1ccc(F)c(-c2ncnc3cc(N4CCOCC4)ccc23)c1)c1nccs1 (stereo not drawn) [Example 176, 4-[2-Fluoro-5-(-methoxy-thiazol-2-ylmethyl)phenyl]-7-morpholin-4-yl-quinazoline] has an IC50 ([1]; Table 5) of 0.007 to 0.03 µM.

OC(c1cccc(-c2ncnc3cc(N4CCOCC4)sc23)c1)c1nccs1 (stereo not drawn) [Example 182, [3-(6-Morpholin-4-ylthieno[3,2-d}-pyrimidin-4-yl)-phenyl]thiazol-2-yl-methanol] showed an IC50 ([1]; Table 5) of 0.007 to 0.03 µM and an IC50 ([2]; Table 5, HCT116 cells) of 5 to 10 µM.

Work on OC(c1cncc(-c2ncnc3cc(N4CCOCC4)ccc23)c1)c1nccs1 (stereo not drawn) [Example 183, [5-(7-Morpholin-4-ylquinazolin-4-yl)-pyndin-3-yl]thiazol-2-ylmethanol] yielded an IC50 ([1]; Table 5) of 0.007 to 0.03 µM.

For OC(c1cncc(-c2ncnc3cc(N4CCOCC4)ccc23)c1)c1nccs1 (stereo not drawn) [Example 184, [5-(7-Morpholin-4-ylquinazolin-4-yl)-pyridin-3-yl]thiazol-2-ylmethanol], the IC50 ([1]; Table 5) was 0.007 to 0.03 µM.

OC(c1ccc(F)c(-c2ncnc3cc(N4CCOCC4)ccc23)c1)c1nccs1 (stereo not drawn) [Example 212, [4-Fluoro-3-(7-morpholin-4-yl-quinazolin-4-yl)-phenyl]thiazol-2-ylmethanol] showed an IC50 ([1]; enzymatic, 5 μM ATP) of under 0.003 µM and an IC50 [2, 4] of 10 to 30 µM.

In the case of OC(c1ccc(F)c(-c2ncnc3cc(N4CCOCC4)ccc23)c1)c1nccs1 (stereo not drawn) [Example 213, [4-Fluoro-3-(7-morpholin-4-yl-quinazolin-4-yl)-phenyl]thiazol-2-ylmethanol], the IC50 ([1]; enzymatic, 5 μM ATP) is reported as under 0.003 µM and the IC50 [2, 4] is reported as 5 to 10 µM.

COc1nccnc1C(O)c1cc(-c2ncnc3cc(N4CCOCC4)cc(F)c23)c(F)cc1Cl (stereo not drawn) [Example 250, [2-Chloro-4-fluoro-5-(5-fluoro-7-morpholin-4-yl-quinazolin-4-yl)-phenyl]-(3-methoxy-pyrazin-2-yl)-methanol] was tested, and the IC50 [2, 5] was under 0.5 µM.

COc1nccnc1C(O)c1cc(-c2ncnc3cc(N4CCOCC4)cc(F)c23)c(F)cc1Cl (stereo not drawn) [Example 266, [2-Chloro-4-fluoro-5-(5-fluoro-7-morpholin-4-yl-quinazolin-4-yl)-phenyl]-(3-methoxy-pyrazin-2-yl)-methanol] gave an IC50 [2, 5] of under 0.5 µM.

Cn1cnc2ncnc(C(O)c3cc(-c4ncnc5cc(N6CCOCC6)ccc45)c(F)cc3F)c21 (stereo not drawn) [Example 386, [2,4-Difluoro-5-(7-morpholin-4-yl-quinazolin-4-yl)-phenyl]-(7-methyl-7H-purin-6-yl)-methanol] gave an IC50 ([1]; biochemical DNA-PK assay) of 0.003 to 0.007 µM and an IC50 [2, 5] of 5 to 10 µM.

Cn1cnc2ncnc(C(O)c3cc(-c4ncnc5cc(N6CCOCC6)ccc45)c(F)cc3F)c21 (stereo not drawn) [Example 431, [2,4-Difluoro-5-(7-morpholin-4-yl-quinazolin-4-yl)-phenyl]-(7-methyl-7H-purin-6-yl)-methanol] was tested, and the IC50 ([1]; biochemical DNA-PK assay) was 0.007 to 0.03 µM and the IC50 [2, 5] was 0.5 to 5 µM.

Work on OC(c1cc(-c2ncnc3cc(N4CCOCC4)ccc23)c(F)cc1F)c1ncnc2ccoc12 (stereo not drawn) [Example 445, [2,4-Difluoro-5-(7-morpholin-4-yl-quinazolin-4-yl)-phenyl]furo[3,2-d}-pyrimidin-4-yl-methanol] yielded an IC50 ([1]; biochemical DNA-PK assay) of 0.003 to 0.007 µM and an IC50 [2, 5] of under 0.5 µM.

Work on OC(c1cc(-c2ncnc3cc(N4CCOCC4)ccc23)c(F)cc1F)c1ncnc2ccoc12 (stereo not drawn) [Example 446, [2,4-Difluoro-5-(7-morpholin-4-yl-quinazolin-4-yl)-phenyl]furo[3,2-d}-pyrimidin-4-yl-methanol] yielded an IC50 ([1]; biochemical DNA-PK assay) of under 0.003 µM and an IC50 [2, 5] of 0.5 to 5 µM.

OC(c1ccc(F)c(-c2ncnc3cc(N4CCOCC4)ccc23)c1)c1nccnc1I (stereo not drawn) [Example 462, [4-Fluoro-3-(7-morpholin-4-yl-quinazolin-4-yl)-phenyl]-(3-iodo-pyrazin-2-yl)-methanol] gave an IC50 ([1]; biochemical DNA-PK assay) of under 0.003 µM and an IC50 [2, 5] of under 0.5 µM.
